Biological target: T1, human glucocorticoid receptor-α [GRX] isoform (Homo sapiens, UniProt P04150)
T1 construct: purchased Ligand Pharmaceuticals (San Diego, CA); host or cells: insect SF21 cells (baculovirus)
T1 sequence (P04150 1-777): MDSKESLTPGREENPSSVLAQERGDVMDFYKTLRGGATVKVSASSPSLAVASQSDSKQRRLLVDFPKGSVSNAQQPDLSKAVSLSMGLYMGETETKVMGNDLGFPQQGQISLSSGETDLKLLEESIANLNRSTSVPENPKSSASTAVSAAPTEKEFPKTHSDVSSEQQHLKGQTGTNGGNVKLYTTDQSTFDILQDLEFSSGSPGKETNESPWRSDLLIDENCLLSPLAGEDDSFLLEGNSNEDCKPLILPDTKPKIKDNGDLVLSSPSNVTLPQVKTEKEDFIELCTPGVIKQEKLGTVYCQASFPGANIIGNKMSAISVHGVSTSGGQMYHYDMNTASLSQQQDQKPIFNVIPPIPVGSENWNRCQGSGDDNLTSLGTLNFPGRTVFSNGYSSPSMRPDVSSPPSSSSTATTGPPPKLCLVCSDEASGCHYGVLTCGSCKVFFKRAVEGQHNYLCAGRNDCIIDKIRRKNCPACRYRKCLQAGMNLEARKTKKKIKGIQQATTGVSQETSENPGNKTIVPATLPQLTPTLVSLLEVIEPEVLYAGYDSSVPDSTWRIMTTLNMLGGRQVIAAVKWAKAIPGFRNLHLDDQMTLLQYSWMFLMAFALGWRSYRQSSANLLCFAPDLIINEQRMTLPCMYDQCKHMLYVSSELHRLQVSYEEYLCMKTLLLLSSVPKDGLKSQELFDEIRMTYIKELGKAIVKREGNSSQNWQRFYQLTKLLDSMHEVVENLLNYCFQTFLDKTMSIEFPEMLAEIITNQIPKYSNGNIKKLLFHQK
Experiment: glucocorticoid receptor (GR) cytosol binding assay, [3H]-dexamethasone competition
Settings: not given
Text: For glucocorticoid receptor (OR) cytosol binding assays, the procedure described in Anal. […] Briefly, cytosol preparations of human glucocorticoid receptor-α [GRX] isoform and human progesterone receptor-A [PRA] isoform were obtained from Ligand Pharmaceuticals (San Diego, CA). Both receptor cDNAs were cloned into baculovirus expression vectors and expressed in insect SF21 cells. […] Glass fiber type C multiscreen MAFC NOB plates were from Millipore ( Burlington, MA). Hydroxyapatide Bio-Gel HTP gel was obtained from Bio-Rad Laboratories (Hercules. CA). Tris(hydroxymethyl)aminomethane (Tris), ethylenediaminetetraacetic acid (EDTA), glycerol, dithiothreitol (DTT) and sodium moylybdate were obtained from Sigma Chemicals (St. Louis, MO). Microscint-20 scintillation fluid was obtained from Packard Instrument (Meriden, CT). […] GRX and PRA binding reactions were performed in Millipore Multiscreen plates. […] Specific binding was defined as the difference between binding of [^3H]Dex in the absence and in the presence of 1µM unlabeled Dex. After an overnight incubation, 50 µL of hydroxyapatite (25 % weight/volume) slurry were added to each well and plates were incubated for 10 min at 4 °C in a plate shaker. Plates were suctioned with a Millipore vacuum manifold and each well was rinsed with 300 µL of ice-cold binding buffer. A 250 µL aliquot of Packard Microscint-20 was added to each well and the wells were shaken at room temperature for 20 minutes. The amount of radioactivity was determined with a Packard TopCount plate reader.

| SMILES | Ki [nM] |
| --- | --- |
| CN(C)c1ccc(C(c2ccc(N(C)C)cc2)c2cc(Cl)ccc2Cl)cc1 [Example 24, 4',4" bis(dimethylamino)-2,5-dichlorotriphenylmethane] | 306 |
| CNc1ccc(C(c2ccc(N(C)C)cc2)c2cc([N+](=O)[O-])ccc2Cl)cc1 (stereo not shown) [Example 39, 4'-dimethylamino-4"-methylamino-2-chloro-5-nitrotriphenylmethane] | 127 |
| CN(C)c1ccc(C(c2ccc(N(C)CCO)cc2)c2cc([N+](=O)[O-])ccc2Cl)cc1 (stereo not shown) [Example 42, 4'-dimethylamino-4"-(N-methyl-N-(2-hydroxyethyl)amino)-2-chloro-5-nitrotriphenylmethane] | 109 |
| CC(=O)OCCN(C)c1ccc(C(c2ccc(N(C)C)cc2)c2cc([N+](=O)[O-])ccc2Cl)cc1 (stereo not shown) [Example 51, 4'-dimethylamino-4"-(N-methyl-N-(2-acetoxyethyl)amino)-2-chloro-5-nitrotriphenylmethane] | 167 |

Same assay, conditions: [3H]-Dex ~0.9 nM, GRX cytosol, 4 °C overnight; Cheng-Prusoff; read-out: Ki (nM) GR

| SMILES | Ki [nM] |
| --- | --- |
| CN(C)c1ccc(C(c2ccc(N(C)C)cc2)c2cc([N+](=O)[O-])ccc2Cl)cc1 [Example 1, 4',4" bis(dimethylamino)-2-chloro-5-nitrotriphenylmethane] | 272 |
| CNc1ccc(C(c2ccc(NC)cc2)c2cc([N+](=O)[O-])ccc2Cl)cc1 [Example 23, 4',4" bis(methylamino)-2-chloro-5-nitrotriphenylmethane] | 60 |
| CNc1ccc(C(c2ccc(NC)cc2)c2cc(Cl)ccc2Cl)cc1 [Example 27, 4',4" bis(methylamino)-2,5-dichlorotriphenylmethane] | 71 |
| CC(=O)OCCN(C)c1ccc(C(c2ccc(N(C)CCOC(C)=O)cc2)c2cc([N+](=O)[O-])ccc2Cl)cc1 [Example 31, 4',4" bis(N-(2-acetoxyethyl) N-methylamino)-2-chloro-5-nitrotriphenylmethane] | 145 |
| CN(CCO)c1ccc(C(c2ccc(N(C)CCO)cc2)c2cc([N+](=O)[O-])ccc2Cl)cc1 [Example 32, 4',4" bis(N-(2-hydroxyethyl) N-methylamino)-2-chloro-5-nitrotriphenylmethane] | 136 |
| O=[N+]([O-])c1ccc(Cl)c(C(c2ccc(NCc3ccccc3)cc2)c2ccc(NCc3ccccc3)cc2)c1 [Example 36, 4',4" bis(N-benzylamino)-2-chloro-5-nitrotriphenylmethane] | 38 |
| CNc1ccc(C(c2ccc(N(C)CCOC(C)=O)cc2)c2cc([N+](=O)[O-])ccc2Cl)cc1 (stereo not shown) [Example 49, 4'-methylamino-4"-(N-(2-acetoxyethyl)-N-methylamino)-2-chloro-5-nitrotriphenylmethane] | 135 |
| CN(C)c1ccc(C(Oc2ccccc2)c2cc([N+](=O)[O-])ccc2Cl)cc1 (stereo not shown) [Example 52, phenyl-[(4'-dimethylaminophenyl)-(2-chloro-5-nitrophenyl)methyl] ether] | 733 |
| CN(C)c1ccc(C(Sc2ccccc2)c2cc([N+](=O)[O-])ccc2Cl)cc1 (stereo not shown) [Example 54, phenyl-[(4'-dimethylaminophenyl)-(2-chloro-5-nitrophenyl)methyl]thioether] | 227 |

Source: EP1100483B1, “GLUCOCORTICOID-SELECTIVE ANTI-INFLAMMATORY AGENTS” (Abbott Laboratories, priority 1998, dated 2000)
